A word on the melting point: it is the temperature, or range, at which the solid turns liquid. For orientation: Kd means the concentration at which binding is half-saturated. Low readings indicate higher affinity, high ones lower affinity. Broadly, the ED50 is the dose that gives a 50% effect, or the effect in half of the subjects. By IC50 is commonly meant the concentration needed to halve the response being measured.

The results in this text go back to patent USRE38132E1, “Phenylpyrrolidines, phenylimidazolidines,3-phenyl-1,3-oxizolidines and 3-phenyl-1,3-thiazolidines and their use in the treatment of inflammatory disease” (Boehringer Ingelheim Pharmaceuticals, Inc., priority 1997, dated 2003).

Where two headings read alike, the source gives them in different places. Where only a bound is given, the exact number is not on record here.

The target of series [1] is T1, interaction of ICAM-1 with the Leukointegrin CD18/CD11a (LFA-1) (Homo sapiens, UniProt P05107+P20701).
T1 construct: endogenous in cells; sICAM-1: made in house, secreted from transfected CHO DUX cells
T1 sequence (P20701 26-1170): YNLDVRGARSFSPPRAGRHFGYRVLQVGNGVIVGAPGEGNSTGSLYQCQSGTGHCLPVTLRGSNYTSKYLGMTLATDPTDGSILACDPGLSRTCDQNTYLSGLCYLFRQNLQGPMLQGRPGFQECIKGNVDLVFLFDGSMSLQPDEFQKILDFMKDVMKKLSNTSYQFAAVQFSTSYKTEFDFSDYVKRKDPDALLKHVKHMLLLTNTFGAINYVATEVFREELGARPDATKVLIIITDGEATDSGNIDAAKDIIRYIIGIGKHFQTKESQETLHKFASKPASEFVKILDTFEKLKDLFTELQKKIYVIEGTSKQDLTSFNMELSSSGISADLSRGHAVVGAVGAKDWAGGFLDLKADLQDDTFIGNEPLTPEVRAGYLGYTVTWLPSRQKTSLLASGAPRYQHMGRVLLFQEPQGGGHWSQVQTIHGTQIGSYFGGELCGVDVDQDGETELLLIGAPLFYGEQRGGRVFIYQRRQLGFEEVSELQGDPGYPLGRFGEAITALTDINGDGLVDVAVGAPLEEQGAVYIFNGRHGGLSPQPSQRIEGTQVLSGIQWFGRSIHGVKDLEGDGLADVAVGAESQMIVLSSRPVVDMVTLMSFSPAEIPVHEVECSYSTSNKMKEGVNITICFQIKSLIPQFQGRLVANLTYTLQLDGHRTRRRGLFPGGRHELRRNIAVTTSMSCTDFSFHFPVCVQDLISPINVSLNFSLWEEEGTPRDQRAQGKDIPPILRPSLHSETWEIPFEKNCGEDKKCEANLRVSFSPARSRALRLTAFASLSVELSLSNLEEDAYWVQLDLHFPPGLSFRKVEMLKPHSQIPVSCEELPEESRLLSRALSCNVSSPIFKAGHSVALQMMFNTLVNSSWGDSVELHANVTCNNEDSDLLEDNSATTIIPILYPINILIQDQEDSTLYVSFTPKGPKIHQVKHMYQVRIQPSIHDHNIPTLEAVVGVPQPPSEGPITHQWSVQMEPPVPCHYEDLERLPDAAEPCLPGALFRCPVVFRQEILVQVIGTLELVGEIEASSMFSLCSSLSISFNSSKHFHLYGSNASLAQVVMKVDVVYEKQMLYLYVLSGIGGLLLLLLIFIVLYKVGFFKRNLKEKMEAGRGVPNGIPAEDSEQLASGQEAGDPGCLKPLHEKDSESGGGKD
T1 sequence (P05107 23-769): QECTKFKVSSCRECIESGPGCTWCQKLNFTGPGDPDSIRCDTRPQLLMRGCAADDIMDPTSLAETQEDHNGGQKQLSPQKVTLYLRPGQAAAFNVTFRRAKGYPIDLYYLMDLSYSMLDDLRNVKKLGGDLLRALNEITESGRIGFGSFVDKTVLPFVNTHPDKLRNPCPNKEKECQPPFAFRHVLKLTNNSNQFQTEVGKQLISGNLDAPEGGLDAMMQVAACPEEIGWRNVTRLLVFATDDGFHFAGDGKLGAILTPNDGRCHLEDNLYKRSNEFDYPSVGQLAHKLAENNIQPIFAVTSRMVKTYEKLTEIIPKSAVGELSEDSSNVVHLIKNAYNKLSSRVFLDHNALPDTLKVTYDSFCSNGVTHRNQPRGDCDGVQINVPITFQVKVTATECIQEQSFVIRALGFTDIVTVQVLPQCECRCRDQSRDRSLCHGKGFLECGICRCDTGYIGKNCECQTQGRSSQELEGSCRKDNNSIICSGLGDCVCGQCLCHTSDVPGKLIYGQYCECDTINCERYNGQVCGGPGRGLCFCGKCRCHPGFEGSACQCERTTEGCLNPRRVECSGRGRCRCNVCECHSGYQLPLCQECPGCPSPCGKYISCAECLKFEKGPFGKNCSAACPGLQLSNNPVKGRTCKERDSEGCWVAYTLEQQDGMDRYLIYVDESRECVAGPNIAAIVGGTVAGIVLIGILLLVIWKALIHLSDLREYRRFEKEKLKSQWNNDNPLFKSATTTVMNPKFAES
Briefly: Assay to determine inhibition of LFA-1 binding to ICAM-1 (immunopurified LFA-1 on plate-bound sICAM-1, ELISA readout). Conditions: values marked e approximated from incomplete dose-response curve.

The test system of series [2] is allogeneic cell transplant response, popliteal lymph node. Briefly: In vivo allogeneic cell transplant model (popliteal lymph node weight). Conditions: Mus musculus, po; mice, per os, dose at which 50% inhibition is observed; read-out: Allogeneic Cell Transplantation Assay ACT ED50. The source says: In vivo: Allogeneic Cell Transplant Model Purpose of Assay: The ability of cells to recognize other cells from self or from another genetically different individual (non-self) is an important property in maintaining the integrity of tissue and organ structure. The allogeneic cell transplant response is an important model for studies of transplant rejection and immunocompetence. This T-cell-mediated immune response can be induced in adult mice by the injection of lymphocytes from a histoincompatible mouse strain into the footpad . This response is characterized by T-cell proliferation which is limited to the popliteal lymph node that receives drainage from the injected footpad area. No in vitro system can completely duplicate this in vivo response. Thus, this animal model can be used to assess the ability of a test compound to suppress transplant rejection. Description of Assay Protocol: Experiments are conducted using male or female mice (20-26 grams). Any histoincompatible mouse strains suffice for donor and recipient populations. Typically DBA mice are used as donors and […] mice are used as recipients. A minimum of 1 week stabilization and conditioning period is required before use during which time the animals are maintained in accordance with the Animal Resource Center S.O.P. Each study utilizes 36 recipient mice divided into groups of 6. The tests last approximately four days. Donor mice are sacrificed by CO2 asphyxiation and spleens are removed and made into a cell suspension. The cells (1.0·10^7/metatarsal in 0.05 mL) are injected intra dermal (according to standard protocol) into the dorsal metatarsal skin of recipient mice. Four days later, the animals are sacrificed by CO2 asphyxiation and the popliteal nodes are removed and weighed. Groups of mice receiving putative immunosuppressive agents are dosed subcutaneously, intraperitoneally or orally one hour prior to cell injection and daily thereafter according to standard protocol. Student's T-test was used to determine significant differences between popliteal lymph nodes of groups of untreated mice and those mice treated with putative immunosuppressive agents (see: Kroczek, R. A.; Black, C. D. V.; Barbet, […]. Immunology, 1987, 139, 3597). Data are reported as the dose at which 50% inhibition is observed and the manner in which the compound was administered. In Table 23, the following legends are applicable: ^and=not determined. ^bpercent inhibition at 160 μg/mL. ^cno inhibition observed up to highest dose. Exact quantification not always possible due to intrinsic toxicity of compound (see MTT result). ^[…] inhibition (concentration in μM ). ^eapproximated from incomplete dose-response curve. ^fnot determined; compound is a synthesis intermediate.

Series [3] concerns LFA-1 dependent aggregation of JY cells. Briefly: JY cell homotypic aggregation assay (PMA-stimulated). In kind it is cell-based, human. Conditions: Homo sapiens. The essentials:
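Homotypic aggregation of EBV-transformed JY cells, stimulated by phorbol myristate acetate ([…]), scored visually over time in compound presence at 2·10^5 cells/well in serum-supplemented RPMI 1640. Result given as μM concentration or range inhibiting binding by 50%.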

In series [4] the test system is cell bound fibronectin receptor (VLA4) with fibronectin, SKW3 cells. The series is described as follows: Inhibition of SKW3 cell binding to fibronectin (selectivity counter-assay). In kind it is cell-based, human. The essentials: (§1)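 Compound-treated, PMA-stimulated human T-cell line SKW3 (50 μg/mL PMA final) allowed to adhere for 2 h at 37° C to wells coated with sICAM-1 at 40 μg/mL or fibronectin at 100 μg/mL. After gentle RPMI wash, 50% inhibition concentration or range reported in μM.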

Series [5] concerns SKW3 cells.
Source text: MMT Assay to Determine Cytotoxicity
MTT, (3-(4,5-dimethylthiazol-2-yl)-2,5-diphenyl-2H-tetrazolium bromide), is a yellow substrate that is cleaved by cells with active mitochondria to yield a dark blue/purple formazan product. […] The amount of color is proportional to the number of viable cells. This assay system is used to assess the effect of test compounds on cell viability in vitro.
SKW3 cells, which express LFA-1, are used. Cells used in each assay were adjusted to 1.25·10^6 cells/mL and 100 μL of this stock is dispersed into each well of a 96 well, flat bottom microtiter plate. For each condition in a particular experiment, triplicate wells are set up. Serial dilutions of each test compound or vehicle alone are added to each well. Cells are incubated with compound for 4-24 h at 37° C. before cell viability is assessed. Next, 10 μL of filter sterilized MTT is added to each well. The MTT stock is made in phosphate buffered saline at a concentration of 5 mg/mL. Plates are then incubated for 1 h at 37° C., 5% CO2 atmosphere. Periodically, the plates are examined for formazan crystal development.
At the end of the incubation period, formazan crystals are dissolved by the addition of 100 μL of 0.04 N HCl in iso-propyl alcohol to each well. Each well is thoroughly mixed by repeated pipetting with a multichannel pipetter. The plates are allowed to sit at room temperature for 15-20 minutes and are then read with a spectrophotometer. Absorbance is measured at the test wavelength of 570 nm. Data are reported as the concentration range (in μM) wherein 50% of the cells are no longer viable.
Series [6] has as its system cell bound form of LFA-1 (CD18, CD11a) with ICAM-1, SKW3 cells. Briefly: Inhibition of SKW3 cell binding to ICAM-1 (PMA-stimulated). Conditions: Homo sapiens, read-out: Assay to Detect SKW3 Cells Binding to ICAM IC50. In kind it is cell-based, human. The essentials:
as §1

For the molecule `CC1(Cc2ccc(Cl)c(Cl)c2)NC(=O)N(c2cc(Cl)cc(Cl)c2)C1=O` (stereo not shown) [Example 55], the melting point lay within 150 to 151 °C. This molecule also registered a Kd in series [1] of 0.2 µM.
On the same counts, the results for `CC1(Cc2ccc3c(Cl)cc(C(F)(F)F)nc3c2)NC(=O)N(c2cc(Cl)cc(Cl)c2)C1=O` (stereo not shown) [Example 59] are 173 to 174 °C and 0.33 µM.
On the same counts, the results for `CC1(Cc2ccc(SC(F)(F)F)cc2)NC(=O)N(c2cc(Cl)cc(Cl)c2)C1=O` (stereo not shown) [Example 60] are 133 to 134 °C and 0.23 µM.
On to `COc1c(F)c(F)c(CC2(C)NC(=O)N(c3cc(Cl)cc(Cl)c3)C2=O)c(F)c1F` (stereo not shown) [Example 61], for which the melting point fell in the range of 122 to 123 °C. Besides, in series [1], the Kd turned out to be 2.35 µM.
On the same counts, the results for `CC1(Cc2ccc(C(F)(F)F)c(F)c2)NC(=O)N(c2cc(Cl)cc(Cl)c2)C1=O` (stereo not shown) [Example 62] are 67 to 69 °C and 0.16 µM.
For `CC1(Cc2ccc(Cl)s2)NC(=O)N(c2cc(Cl)cc(Cl)c2)C1=O` (stereo not shown) [Example 64], the melting point lay within 55 to 56 °C. The molecule also came in with a Kd in series [1] of 1.45 µM.
On the same counts, the results for `CC1(Cc2cccc(SC(F)(F)F)c2)NC(=O)N(c2cc(Cl)cc(Cl)c2)C1=O` (stereo not shown) [Example 65] are 170 to 171 °C and 1.32 µM.
`CC1(Cc2ccccc2OC(F)(F)F)NC(=O)N(c2cc(Cl)cc(Cl)c2)C1=O` (stereo not shown) [Example 66] showed a melting point of 153 to 155 °C. In series [1], this molecule showed a Kd of 2.85 µM.
In turn, `CC1(Cc2ccc(C(F)(F)F)c(F)c2F)NC(=O)N(c2cc(Cl)cc(Cl)c2)C1=O` (stereo not shown) [Example 67] returned a melting point of 163 to 164 °C. This molecule had a dissociation constant Kd in series [1] of 3.54 µM.
The molecule `CC1(Cc2ccc(F)c(C(F)(F)F)c2)NC(=O)N(c2cc(Cl)cc(Cl)c2)C1=O` (stereo not shown) [Example 69] displayed a melting point of 168 to 170 °C. For the same molecule, the Kd in series [1] is around 70 µM.
Consider `CC(=O)N1C(=O)N(c2cc(Cl)cc(Cl)c2)C(=O)[C@@]1(C)Cc1ccc(-c2cccnc2)cc1` [Example 125], for which the ED50 in series [2] is around 90 mg/kg. The 50% inhibitory concentration (IC50) in series [3] is 0.4 µM; in series [6] (SKW3, values marked c: no inhibition observed up to highest dose), 1 to 3 µM. In series [1], this molecule yielded a Kd of 0.11 µM. Moreover, the “Assay to Detect SKW3 Cells Binding to FIBRONECTIN IC50” value in series [4] (values marked c: no inhibition observed up to highest dose) is listed as “No inh^c”. In addition, in series [5], the “Cellular Toxicity Assay MTT LD50” value is above 400 µM.
As for `CN1C(=O)N(c2cc(Cl)cc(Cl)c2)C(=O)[C@@]1(C)Cc1ccc(Br)cc1` [Example 271], in series [2], the ED50 is around 20 mg/kg. Also, the IC50 worked out at 0.1 µM in series [3] and 3 µM in series [6] (SKW3). For the same molecule, in series [4] (No inh = no inhibition observed up to highest dose, exact quantification not always possible due to intrinsic toxicity), the “Assay to Detect SKW3 Cells Binding to FIBRONECTIN IC50” value is “No inh^c”. In series [5], the “Cellular Toxicity Assay MTT LD50” value lay in the range of 250 to 500 µM.
